This is an account of results in ChEMBL document CHEMBL6103552, “Identification of peptide-based hepatitis B virus capsid inhibitors based on the viral core protein” (Bioorg Med Chem Lett, 2025).

This assay has as its target Core antigen (Hepatitis B virus) (UniProt Q03732). Kind of assay: Inhibition of Hepatitis B virus capsid formation at 100 uM treated during cell-free wild type HBV Cp synthesis using wheat germ lysates and HBV Cp RNA by Native capsid assay based western blot analysis. Format: subcellular. A general note: Immunoblotting shows a protein as a band on a membrane.

The source made the active and inactive calls. How the calls were made is not given here. Residues, ends and D or L forms follow the SMILES beside them.

Sequence of Core antigen (Hepatitis B virus) (Q03732 as listed by the source): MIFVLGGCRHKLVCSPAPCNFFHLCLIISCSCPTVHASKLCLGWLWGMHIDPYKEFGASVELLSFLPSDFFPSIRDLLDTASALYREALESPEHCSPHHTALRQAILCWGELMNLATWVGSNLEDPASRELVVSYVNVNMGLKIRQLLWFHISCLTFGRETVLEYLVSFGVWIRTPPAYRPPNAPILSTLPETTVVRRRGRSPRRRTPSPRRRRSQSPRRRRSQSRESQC

Take `CC(=O)N[C@@H](CC(C)C)C(=O)N[C@@H](CCC(=O)O)C(=O)N[C@@H](CC(=O)O)C(=O)N1CCC[C@H]1C(=O)N[C@@H](C)C(=O)N[C@@H](CO)C(=O)N[C@@H](CCCNC(=N)N)C(=O)N[C@@H](CCC(=O)O)C(=O)N[C@@H](CC(C)C)C(=O)N[C@H](C(=O)N[C@H](C(=O)N[C@@H](CO)C(=O)N[C@@H](Cc1ccc(O)cc1)C(=O)N[C@H](C(=O)N[C@@H](CC(N)=O)C(N)=O)C(C)C)C(C)C)C(C)C`: the inhibition entry was “inactive”.
In the case of `CC(=O)N[C@@H](CO)C(=O)N[C@H](C(=O)N[C@@H](CC(C)C)C(=O)N1CCC[C@H]1C(=O)N[C@@H](CCC(=O)O)C(=O)N[C@H](C(=O)N[C@H](C(=O)N[C@H](C(=O)N[C@H](C(=O)N[C@@H](CCCNC(=N)N)C(=O)N[C@@H](CCCNC(=N)N)C(=O)N[C@@H](CCCNC(=N)N)C(=O)NCC(=O)N[C@@H](CCCNC(=N)N)C(=O)N[C@@H](CO)C(N)=O)C(C)C)C(C)C)[C@@H](C)O)[C@@H](C)O)[C@@H](C)O`, the inhibition entry is “inactive”.
On to `CC(=O)N[C@@H](Cc1c[nH]c2ccccc12)C(=O)N[C@H](C(=O)NCC(=O)N[C@@H](CO)C(=O)N[C@@H](CC(N)=O)C(=O)N[C@@H](CC(C)C)C(=O)N[C@@H](CCC(=O)O)C(=O)N[C@@H](CC(=O)O)C(=O)N1CCC[C@H]1C(=O)N[C@@H](C)C(=O)N[C@@H](CO)C(=O)N[C@@H](CCCNC(=N)N)C(=O)N[C@@H](CCC(=O)O)C(=O)N[C@@H](CC(C)C)C(=O)N[C@H](C(N)=O)C(C)C)C(C)C`, for which the inhibition result is “inactive”.
Turning to `CC[C@H](C)[C@H](NC(=O)[C@@H]1CCCN1C(=O)[C@H](C)NC(=O)[C@H](CC(N)=O)NC(C)=O)C(=O)N[C@@H](CC(C)C)C(=O)N[C@@H](CO)C(=O)N[C@H](C(=O)N[C@@H](CC(C)C)C(=O)N1CCC[C@H]1C(=O)N[C@@H](CCC(=O)O)C(=O)N[C@H](C(=O)N[C@H](C(=O)N[C@H](C(=O)N[C@H](C(=O)N[C@@H](CCCNC(=N)N)C(N)=O)C(C)C)C(C)C)[C@@H](C)O)[C@@H](C)O)[C@@H](C)O`, the inhibition entry is “inactive”.
In the case of `CC[C@H](C)[C@H](NC(=O)[C@H](C)NC(=O)[C@H](CCC(N)=O)NC(=O)[C@@H]1CCCN1C(C)=O)C(=O)N[C@@H](CC(C)C)C(=O)N[C@@H](CS)C(=O)N[C@@H](Cc1c[nH]c2ccccc12)C(=O)NCC(=O)N[C@@H](CCC(=O)O)C(=O)N[C@@H](CC(C)C)C(=O)N[C@@H](CCSC)C(=O)N[C@@H](CC(N)=O)C(=O)N[C@@H](CC(C)C)C(=O)N[C@@H](C)C(=O)N[C@H](C(N)=O)[C@@H](C)O` it was “inactive”; in that of `CC[C@H](C)[C@H](NC(=O)[C@H](CO)NC(C)=O)C(=O)N[C@@H](CCCNC(=N)N)C(=O)N[C@@H](CC(=O)O)C(=O)N[C@@H](CC(C)C)C(=O)N[C@@H](CC(C)C)C(=O)N[C@@H](CC(=O)O)C(=O)N[C@H](C(=O)N[C@@H](C)C(=O)N[C@@H](CO)C(=O)N[C@@H](C)C(=O)N[C@@H](CC(C)C)C(=O)N[C@@H](Cc1ccc(O)cc1)C(=O)N[C@@H](CCCNC(=N)N)C(=O)N[C@@H](CCC(=O)O)C(N)=O)[C@@H](C)O`, “inactive”; in that of `CC[C@H](C)[C@H](NC(=O)[C@H](Cc1c[nH]c2ccccc12)NC(=O)[C@@H](NC(=O)CNC(=O)[C@H](Cc1ccccc1)NC(=O)[C@H](CO)NC(C)=O)C(C)C)C(=O)N[C@@H](CCCNC(=N)N)C(=O)N[C@H](C(=O)N1CCC[C@H]1C(=O)N1CCC[C@H]1C(=O)N[C@@H](C)C(=O)N[C@@H](Cc1ccc(O)cc1)C(=O)N[C@@H](CCCNC(=N)N)C(=O)N1CCC[C@H]1C(=O)N1CCC[C@H]1C(N)=O)[C@@H](C)O`, “inactive”.
Consider `CSCC[C@H](NC(=O)[C@H](CC(C)C)NC(=O)[C@H](CCC(=O)O)NC(=O)CNC(=O)[C@H](Cc1c[nH]c2ccccc12)NC(=O)[C@H](CS)NC(C)=O)C(=O)N[C@@H](CC(N)=O)C(=O)N[C@@H](CC(C)C)C(=O)N[C@@H](C)C(=O)N[C@H](C(=O)N[C@@H](Cc1c[nH]c2ccccc12)C(=O)N[C@H](C(=O)NCC(=O)N[C@@H](CO)C(=O)N[C@@H](CC(N)=O)C(N)=O)C(C)C)[C@@H](C)O`, for which the inhibition result was “inactive”.
In the case of `CSCC[C@H](NC(=O)[C@H](CC(N)=O)NC(=O)[C@@H](NC(=O)[C@H](CC(N)=O)NC(=O)[C@@H](NC(=O)[C@H](Cc1ccc(O)cc1)NC(=O)[C@H](CO)NC(=O)[C@@H](NC(=O)[C@@H](NC(=O)[C@H](CC(C)C)NC(=O)[C@H](CCC(=O)O)NC(=O)[C@H](CCCNC(=N)N)NC(=O)[C@H](CO)NC(C)=O)C(C)C)C(C)C)C(C)C)C(C)C)C(=O)NCC(=O)N[C@@H](CC(C)C)C(N)=O` it was “inactive”; in that of `CSCC[C@H](NC(C)=O)C(=O)N[C@@H](CC(N)=O)C(=O)N[C@@H](CC(C)C)C(=O)N[C@@H](C)C(=O)N[C@H](C(=O)N[C@@H](Cc1c[nH]c2ccccc12)C(=O)N[C@H](C(=O)NCC(=O)N[C@@H](CO)C(=O)N[C@@H](CC(N)=O)C(=O)N[C@@H](CC(C)C)C(=O)N[C@@H](CCC(=O)O)C(=O)N[C@@H](CC(=O)O)C(=O)N1CCC[C@H]1C(=O)N[C@@H](C)C(N)=O)C(C)C)[C@@H](C)O`, “inactive”.
Regarding `CC(=O)N[C@@H](C)C(=O)N[C@@H](CC(C)C)C(=O)N[C@@H](CCC(=O)O)C(=O)N[C@@H](CO)C(=O)N1CCC[C@H]1C(=O)N[C@@H](CCC(=O)O)C(=O)N[C@@H](Cc1c[nH]cn1)C(=O)N[C@@H](CS)C(=O)N[C@@H](CO)C(=O)N1CCC[C@H]1C(=O)N[C@@H](Cc1c[nH]cn1)C(=O)N[C@@H](Cc1c[nH]cn1)C(=O)N[C@H](C(=O)N[C@@H](C)C(=O)N[C@@H](CC(C)C)C(N)=O)[C@@H](C)O` (Ac-ALESPEHCSPHHTAL-NH2), the inhibition result was “inactive”.
In the case of `CC(=O)N[C@@H](C)C(=O)N[C@@H](CC(C)C)C(=O)N[C@@H](Cc1ccc(O)cc1)C(=O)N[C@@H](CCCNC(=N)N)C(=O)N[C@@H](CCC(=O)O)C(=O)N[C@@H](C)C(=O)N[C@@H](CC(C)C)C(=O)N[C@@H](CCC(=O)O)C(=O)N[C@@H](CO)C(=O)N1CCC[C@H]1C(=O)N[C@@H](CCC(=O)O)C(=O)N[C@@H](Cc1c[nH]cn1)C(=O)N[C@@H](CS)C(=O)N[C@@H](CO)C(=O)N1CCC[C@H]1C(N)=O` (Ac-ALYREALESPEHCSP-NH2) it was “inactive”.
The result for `CC[C@H](C)[C@H](NC(=O)[C@@H]1CCCN1C(=O)[C@H](C)NC(=O)[C@H](CC(N)=O)NC(=O)[C@@H]1CCCN1C(=O)[C@@H]1CCCN1C(=O)[C@H](CCCNC(=N)N)NC(=O)[C@H](Cc1ccc(O)cc1)NC(=O)[C@H](C)NC(C)=O)C(=O)N[C@@H](CC(C)C)C(=O)N[C@@H](CO)C(=O)N[C@H](C(=O)N[C@@H](CC(C)C)C(=O)N1CCC[C@H]1C(=O)N[C@@H](CCC(=O)O)C(N)=O)[C@@H](C)O` (Ac-AYRPPNAPILSTLPE-NH2) reads “inactive”; that for `CC[C@H](C)[C@H](NC(=O)[C@H](C)NC(=O)[C@H](CCC(N)=O)NC(=O)[C@@H]1CCCN1C(=O)[C@H](CC(C)C)NC(=O)[C@H](C)NC(=O)[C@@H](NC(=O)[C@H](Cc1c[nH]cn1)NC(=O)[C@H](Cc1c[nH]cn1)NC(=O)[C@@H]1CCCN1C(=O)[C@H](CO)NC(=O)[C@H](CS)NC(=O)[C@H](Cc1c[nH]cn1)NC(=O)[C@H](CCC(=O)O)NC(C)=O)[C@@H](C)O)C(=O)N[C@@H](CC(C)C)C(N)=O` (Ac-EHCSPHHTALPQAIL-NH2), “inactive”.
